From a melting point compilation (Tetko et al.; mined from patent text by program, amines drawn as free bases though some values may be those of a salt) come the findings set out here.

A word on the melting point: it is the temperature, or range, at which the solid turns liquid.

For `CCOC(=O)CCN1CCN(CC=CC(=O)Nc2cc3c(Nc4ccc(F)c(Cl)c4)ncnc3cc2OCC2CC2)CC1`, the melting point was 183 to 185 °C. Take `CCCc1c(OCCCCCC(=O)c2ccc3cc(OC)c(OC)cc3c2)ccc(C(=O)O)c1O`: the melting point was in the range of 144 to 146 °C.

`CC(C)C(C)(C)C(O)C(Cc1ccc(Cl)cc1)n1cncn1` (stereo unspecified): the melting point amounted to 106 °C. Under `Cc1nn(-c2ccc(C(F)(F)F)cn2)cc1COc1cccc(CC(=O)O)c1` stands 142 to 143 °C. `COC(=O)c1nn(C)nc1C(=O)OC` had a melting point of 86 to 87 °C. As for `Sc1nc(-c2ccc(Cl)cc2)c(-c2cccs2)[nH]1`, the figure is 274 to 276 °C; as for `CCn1cnc2c(Nc3cccc(Cl)c3)nc(N3CCC[C@@H]3CN)nc21`, 126 to 129 °C. `COc1ccc(C(=O)c2csc(S(N)(=O)=O)c2)cc1`: the melting point was in the range of 173 to 175 °C. With `O=C(O)Cc1c(C(=O)c2ccc(Cl)cc2Cl)[nH]c2cc(Cl)ccc12`, the melting point lay in the range of 190 to 192 °C. Compound `O=C(OC(Cn1ccnc1)CS(=O)(=O)c1ccccc1)c1ccc(Cl)cc1Cl` (stereo unspecified) yielded a melting point of 106 to 109 °C. In turn, `CCC1(CCCCN2CCN(c3ccc(Cl)cc3)CC2)C(=O)Nc2ccccc21` (stereo unspecified) gave a melting point of 145 to 146 °C.

`C=CCC(C#N)(C#N)C(C)(C)c1cccc(Cl)c1` returned a melting point of 84.3 °C. Compound `NC1=NN(c2cccc(Cl)c2)C(c2ccccc2)C1` (stereo unspecified) gave a melting point of 164 to 165 °C. Under `Nc1ccc2sc3ccc(F)cc3c2c1` stands 131 to 132 °C; under `COc1cc(OC)c2c(c1)N1CCCCC1CC2=O` (stereo unspecified), 91 to 94 °C; under `CCCCOc1ncc(C(C)=O)cc1-c1nc2c(CC)n(CC3CC3)nc2c(=O)[nH]1`, 184 to 185 °C. Under `CCCc1c(OCCCOc2ccc3c(c2CCC)OC(C)(CCC(=O)OC)CC3)ccc(C(C)=O)c1O` (stereo unspecified) stands 53 to 55 °C; under `CCCCCCCCCCCCC/C=C(\C(=O)Nc1ccc(C(=O)OC)cc1)c1ccc2c(c1)C(C)(C)CCC2(C)C`, 93 to 94 °C; under `CN(CCO)c1cc(C(c2cc(F)ccc2F)S(=O)(=O)c2ccc(Cl)cc2)c(Cl)cn1` (stereo unspecified), 88 to 89 °C.

The compound `COc1ccc(CC(=O)c2ccc(OC)c(OC)c2)cc1OC` came in with a melting point of 105 to 107 °C.

Compound `O=C1CCc2cc(Cl)c(S(=O)(=O)Cl)cc21` had a melting point of 146 to 148 °C. Under `N#Cc1ccc(-c2ccc(I)cc2)cc1` stands 162 to 168 °C. As for `Cc1ccc(F)cc1C1CC(=O)c2c(C)cnnc2C1` (stereo unspecified), the figure is 127 to 128 °C; as for `Cn1cc(C2(c3c4n(c5ccccc35)CCCCC4)CC(=O)NC2=O)c2ccccc21` (stereo unspecified), above 300 °C; as for `OCc1cnoc1-c1ccc(F)cc1`, 41 to 42 °C. Under `COC(=O)C1=C(C)NC(c2c(F)cccc2F)=NC1c1ccc(F)cc1Cl` (stereo unspecified) stands 126 to 128 °C; under `CN(Cc1cc(C(F)(F)F)cc(C(F)(F)F)c1)C(=O)c1c(-c2ccc(F)cc2)c2c(c(=O)n1C)CCCN2C`, 230 to 232 °C; under `O=C(c1nc2ccc(O)cc2[nH]1)N1CCC(=Cc2ccccc2)CC1`, 148 °C. Compound `CCCCCCCCCCNc1nc(NCC(O)C2CC(C)(C)NC(C)(C)C2)nc(NCC(O)C2CC(C)(C)NC(C)(C)C2)n1` (stereo unspecified) yielded a melting point of 106 to 107 °C. As for `CCn1c2ccccc2c2cc(C=Cc3ccc(N)cc3)ccc21`, the figure is 131 to 132 °C; as for `Cc1cc2cccc(Br)c2nc1C`, 78 °C. Under `CSC(NCCNC(=O)OC(C)(C)C)=C(C#N)C#N` stands 123 to 125 °C. Under `O=C1c2ccc(S(=O)(=O)c3ccccc3)cc2C(=O)c2cc3ccccc3cc21` stands above 260 °C. On to `CCOC(=O)/C=C/c1nc(COc2ccc(COc3nn(-c4ccccc4)cc3C=O)cc2OC)c(C)o1`, for which the melting point lay within 150 to 151 °C. Regarding `Clc1ccc2c(c1)ncc1ncsc12`, the melting point was in the range of 199 to 200 °C.

`O=C(Nc1ccc(Oc2ccnc(NC3(CO)CCCC3)n2)c2ccccc12)c1cc(F)cc(N2CCOCC2)c1` had a melting point of 115 to 117 °C. Under `O=C(Nc1cccc([N+](=O)[O-])c1)NC1N=C(c2ccccc2F)c2ccccc2N(CC(=O)N2CC3CCC(CC3)C2)C1=O` (racemic) stands 180 to 187 °C; under `C=CCOc1cc(C)ccc1N1C(=O)c2ccccc2C1=O`, 122 to 124 °C. The compound `O=C(O)c1cc2cc(C(=O)c3cccs3)c(Cl)c(Cl)c2o1` yielded a melting point of 243 to 245 °C. Take `Cn1c(COc2cccc([N+](=O)[O-])c2)nc2ccccc21`: the melting point was 183 to 185 °C.

Turning to `O=C(O)c1cc2cc(F)c(F)cc2[nH]1`, the melting point lay in the range of 279 to 280 °C. Under `CCCCN=C1SC(=CC(=O)O)C(=O)N1CCCC` stands 99 to 101 °C; under `COC(=O)c1[nH]c2c(OCc3ccccc3)cc([N+](=O)[O-])c(CCCl)c2c1C(=O)OC`, 122 to 128 °C.

`CC1C(=O)Nc2ccc(Cl)cc2N1C1CC1` (racemic): the melting point was 167 °C. Under `N#Cc1ccc(-c2cn(-c3ccc(I)cc3)c(SCC(O)CO)n2)cc1` (stereo unspecified) stands 160 to 174 °C; under `Cn1c(-c2ccc(C(=O)O)cc2)ccc1-c1ccc(C(F)(F)F)cc1`, 260 to 261 °C. Under `O=C(Nc1ccc(-n2nc(C(F)(F)F)cc2C(F)(F)F)cc1)c1cc(F)c(F)c(F)c1` stands 158 to 159 °C. In the case of `O=Cc1cccc2ccc(-c3ccccc3)nc12`, the melting point was in the range of 100 to 102 °C. With `CC1(C)Oc2ccc(C#N)cc2[C@@H](NC(=O)Nc2ccccc2)[C@@H]1O` (relative stereo), the melting point lay within 226 to 227 °C. As for `CC(C)(C)C(=O)Nc1ncc(Cl)cc1C=O`, the figure is 169 to 171 °C; as for `COc1ccc(C(CN(C)C)C2(O)C=CCCC2)cc1` (stereo unspecified), 128 to 130 °C. Regarding `CN(C)C(=O)CCCOc1ccc2c(c1)C[C@@H](NC(=O)OC(C)(C)C)CC2`, the melting point lay in the range of 97 to 101 °C. In turn, `CC(C)(C)OC(=O)NCc1[nH]c(C(=O)O)cc(=O)c1O` registered a melting point above 300 °C. As for `O=C1CNC(=O)C(CSC(c2ccccc2)(c2ccccc2)c2ccccc2)N1` (stereo unspecified), the figure is 225 to 227 °C; as for `CCOC(=O)C=Cc1cc(=O)c(C(=O)O)cn1-c1ccc(O)cc1C`, 185 to 189 °C.

As to `CCOCc1nc2c(N)nc3ccc(OCc4ccccc4)cc3c2n1CCCCN(C(N)=O)c1ccccc1`, the melting point was in the range of 186 to 188 °C. As for `CCOC(=O)OC1=C(c2cc(C)ccc2C)C(=O)NC1CC1CCS(=O)CC1` (stereo unspecified), the figure is 103 to 106 °C; as for `CC(OCCc1ccc([N+](=O)[O-])cc1)OC1C(O)C(CO)OC1n1ccc(=O)[nH]c1=O` (stereo unspecified), 162 °C. Under `CO[C@@H]1CN(CCn2c(C)nc3ccccc3c2=O)CC[C@@H]1NC(=O)c1cc(Cl)c(N)c2c1OCC2` (relative stereo) stands 275 °C; under `C[Si](C)(C)CC(O)(Cn1nc[nH]c1=S)c1ccc(F)cc1` (stereo unspecified), 107 °C. As for `COc1nc(C)cnc1NS(=O)(=O)c1cccnc1-c1ccc(CC(C)(C)C)cc1`, the figure is 159 to 160 °C. Compound `Cn1nc(N)nc1NCCCOc1cccc(C2OCCO2)c1` registered a melting point of 117 to 118 °C.

`COc1ccc2c(c1)C(O)(CCNC(C)=O)CCC2` (stereo unspecified) returned a melting point of 106 to 109 °C. As for `Cc1sc(-c2ccc(OC(F)(F)F)cc2)cc1-c1nc(-c2c(F)cccc2Cl)nn1C`, the figure is 153 to 155 °C.

`CCOC(=O)/C=C/C(=O)Nc1ccc2ncnc(Nc3cccc(Br)c3)c2c1` showed a melting point of 259 to 263 °C. In the case of `CCOC(=O)Cc1nc(-c2ccc(Cl)cc2)oc1C`, the melting point was 69 to 70 °C. In turn, `CCN1C(=O)c2ccc(C(F)(F)F)cc2S(=O)(=O)c2ccccc21` had a melting point of 145 to 146 °C. Under `COC(=O)c1ccc(OCc2ccccc2)c(C(C)=O)c1` stands 68 to 72 °C; under `CCCC(=O)N[C@@H]1CCc2cccc(N3CCN(C)CC3)c2C1`, 131 to 132 °C; under `O=c1ccc(S(=O)(=O)c2cc3ccccc3o2)n[nH]1`, 210 to 211 °C.

`N#Cc1cccc(C2=Nc3ccc(C#CC4=CCNCC4)cc3NC(=O)C2)c1` displayed a melting point of 184 °C. `COc1ccc(-c2[nH]nc3c2C(=O)c2c(NC(=O)CN4CCSCC4)cccc2-3)cc1` displayed a melting point of 298 °C. As for `CC(=O)c1ccc(NC(=O)c2ccc(C3OCC(SC(C)C(O)(Cn4cncn4)c4ccc(F)cc4F)CO3)cc2)cc1` (stereo unspecified), the figure is 171 °C; as for `O=C(Nc1ccc(OCCCN2CCC3(CC2)OCCO3)c2ccccc12)c1cc(F)cc(N2CCCCC2)c1`, 70 to 72 °C; as for `C#Cc1ccc2ccc(OC(OC)C(=O)NC(C)(C)COC)cc2c1` (stereo unspecified), 91 to 92 °C. Under `CSc1cc2c(cc1C(F)(F)F)N(C(=O)Nc1ccc(C(=O)NCCN(C)C)cc1)CC2` stands 154 to 155 °C.

Compound `CCCc1cccn1NS(=O)(=O)C1CCCC=C1C(=O)OCC` (stereo unspecified) displayed a melting point of 66 to 68 °C.

Regarding `C=C(C)CN(CC)c1nc(N2CCN(C(=O)NC(c3ccccc3)c3ccccc3)CC2)nc(N(CC)CC(=C)C)n1`, the melting point was in the range of 178 to 180 °C. As for `COC(=O)c1cc([N+](=O)[O-])c(N)c(F)c1F`, the figure is 184 °C; as for `Cc1cc(C)c2c(c1)OC(C)(COc1ccc([N+](=O)[O-])cc1)CC2=O` (stereo unspecified), 86 to 88.5 °C. `CC(=O)n1nc(-c2cccc([N+](=O)[O-])c2)n2nc(C)cc12` displayed a melting point of 207 to 210 °C.

`C=CS(=O)CCNC(=O)CCS(=O)(=O)C=C` (stereo unspecified) displayed a melting point of 93 °C.

For the compound `CN1CCN(c2cc(Sc3ccccc3)nc(-c3ccccc3)n2)CC1`, the melting point lay within 125 to 128 °C. As for `CC12CCC3c4cc([N+](=O)[O-])c(OCc5ccccc5)cc4CCC3C1CCC2=O` (stereo unspecified), the melting point fell in the range of 234 to 235 °C.

`O=Cc1c2ccccc2c(OCCOCc2ccccc2)c2ccccc12`: the melting point lay within 68 to 69 °C. As for `CC(SCc1cc2cc(Cl)ccc2n1S(=O)(=O)c1ccccc1)C(=O)O` (stereo unspecified), the figure is 138 °C.
